From patent US8013156B2 (Exelixis, Inc., priority 2003, dated 2011) come the findings set out here.

pIC50: −log10 of the molar value.

The target of this assay is Tie-2 (Homo sapiens, UniProt Q02763). The assay can be described thus: Tie-2 tyrosine kinase activity assay (luciferase/luciferin ATP consumption with pEY substrate, or 33P-ATP incorporation). The class given is biochemical. Particulars: human enzyme Tie-2. The essentials: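 Values are IC50 categories (A <50 nM to D ≥10,000 nM), with Ki obtainable by fitting rates to a tight-binding model. Assay formats: 33P-ATP phosphate transfer to adsorbed generic substrate counted by scintillation, or luciferase-detected ATP depletion using pEY.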
Tie-2, sequence (Q02763 23-1124): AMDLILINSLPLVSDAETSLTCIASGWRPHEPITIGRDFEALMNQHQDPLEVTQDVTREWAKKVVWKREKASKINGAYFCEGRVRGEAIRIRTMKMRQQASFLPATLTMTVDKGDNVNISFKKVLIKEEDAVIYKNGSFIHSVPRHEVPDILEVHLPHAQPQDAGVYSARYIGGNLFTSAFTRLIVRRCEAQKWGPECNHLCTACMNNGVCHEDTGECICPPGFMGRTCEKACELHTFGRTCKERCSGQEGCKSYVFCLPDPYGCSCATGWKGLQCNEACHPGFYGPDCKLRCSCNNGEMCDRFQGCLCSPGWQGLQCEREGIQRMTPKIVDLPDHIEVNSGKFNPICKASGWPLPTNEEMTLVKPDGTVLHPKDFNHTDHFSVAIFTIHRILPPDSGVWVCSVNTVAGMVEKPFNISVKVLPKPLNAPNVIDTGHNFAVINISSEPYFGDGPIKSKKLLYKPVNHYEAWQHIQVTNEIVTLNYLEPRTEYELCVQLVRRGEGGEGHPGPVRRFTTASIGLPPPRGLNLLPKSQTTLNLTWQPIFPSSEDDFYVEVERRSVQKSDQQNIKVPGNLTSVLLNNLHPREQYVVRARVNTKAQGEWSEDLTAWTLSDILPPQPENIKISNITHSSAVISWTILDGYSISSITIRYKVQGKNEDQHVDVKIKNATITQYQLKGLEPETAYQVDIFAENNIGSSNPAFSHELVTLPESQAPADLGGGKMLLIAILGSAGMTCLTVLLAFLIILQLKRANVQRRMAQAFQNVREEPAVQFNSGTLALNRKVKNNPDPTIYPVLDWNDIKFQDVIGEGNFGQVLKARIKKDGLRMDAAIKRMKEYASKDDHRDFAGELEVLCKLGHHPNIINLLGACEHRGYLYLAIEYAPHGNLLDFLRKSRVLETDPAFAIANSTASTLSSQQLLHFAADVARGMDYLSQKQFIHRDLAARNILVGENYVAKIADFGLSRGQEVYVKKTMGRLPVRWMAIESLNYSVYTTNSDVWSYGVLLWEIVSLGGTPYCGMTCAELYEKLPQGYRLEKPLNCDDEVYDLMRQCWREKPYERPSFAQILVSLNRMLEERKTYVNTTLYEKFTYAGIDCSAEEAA
`CC1CN(c2nccnc2OCc2ccncc2)CC(C)N1C(=O)Nc1cccc(C(F)(F)F)c1` (centres unmarked) [Example 65, 2,6-dimethyl-4-{3-[(pyridin-4-ylmethyl)oxy]pyrazin-2-yl}-N-[3-(trifluoromethyl)phenyl]piperazine-1-carboxamide]: the pIC50 was 6.00 to 7.30.
As for `Nc1nccc(COc2cccnc2N2CCN(C(=O)Nc3cc(C(F)(F)F)ccc3F)CC2)n1` [Example 169, 4-(3-{[(2-aminopyrimidin-4-yl)methyl]oxy}pyridin-2-yl)-N-[2-fluoro-5-(trifluoromethyl)phenyl]piperazine-1-carboxamide], the figure is above 7.30; as for `Nc1nccc(COc2cccnc2N2CCN(C(=O)Nc3ccccc3F)CC2)n1` [Example 188, 4-(3-{[(2-aminopyrimidin-4-yl)methyl]oxy}pyridin-2-yl)-N-(2-fluorophenyl)piperazine-1-carboxamide], 5.00 to 6.00; as for `O=C(Nc1ccc(Cl)cc1)N1CCN(c2ncccc2OCc2ccncc2)CC1` [Example 103, N-(4-chlorophenyl)-4-{3-[(pyridin-4-ylmethyl)oxy]pyridin-2-yl}piperazine-1-carboxamide], at most 5.00.
In turn, `C[C@@H]1CN(c2nsnc2OCc2ccncc2)CCN1C(=O)Nc1cccc(C(F)(F)F)c1` [Example 53, (2R)-2-methyl-4-{4-[(pyridin-4-ylmethyl)oxy]-1,2,5-thiadiazol-3-yl}-N-[3-(trifluoromethyl)phenyl]piperazine-1-carboxamide] gave a negative-log IC50 (pIC50) of 6.00 to 7.30.
As for `CCc1cc(NC(=O)N2CCN(c3nccnc3OCc3ccnc(N)n3)CC2)ccc1F` [Example 241, 4-(3-{[(2-aminopyrimidin-4-yl)methyl]oxy}pyrazin-2-yl)-N-(3-ethyl-4-fluorophenyl)piperazine-1-carboxamide], the figure is above 7.30; as for `CCNC(=O)N1CCN(c2ncccc2OCc2ccnc(N)n2)CC1` [Example 205, 4-(3-{[(2-aminopyrimidin-4-yl)methyl]oxy}pyridin-2-yl)-N-ethylpiperazine-1-carboxamide], at most 5.00.
The compound `Nc1nccc(COc2nsnc2N2CCN(C(=O)Nc3ccc(F)c(F)c3)CC2)n1` [Example 265, 4-(4-{[(2-aminopyrimidin-4-yl)methyl]oxy}-1,2,5-thiadiazol-3-yl)-N-(3,4-difluorophenyl)piperazine-1-carboxamide] gave a pIC50 of at most 5.00.
`CCc1cccc(NC(=O)N2CCN(c3nsnc3OCc3ccncc3)CC2)c1` [Example 7] gave a pIC50 of 6.00 to 7.30.
Regarding `CCc1cc(Cl)cc(NC(=O)N2CCN(c3nccnc3OCc3ccnc(N)n3)CC2)c1` [Example 202, 4-(3-{[(2-aminopyrimidin-4-yl)methyl]oxy}pyrazin-2-yl)-N-(3-chloro-5-ethylphenyl)piperazine-1-carboxamide], the negative logarithm of the IC50 (pIC50) was above 7.30.
In turn, `CCc1ccc(F)c(NC(=O)N2CCN(c3nccnc3OCc3ccnc(N)n3)CC2)c1` [Example 203, 4-(3-{[(2-aminopyrimidin-4-yl)methyl]oxy}pyrazin-2-yl)-N-(5-ethyl-2-fluorophenyl)piperazine-1-carboxamide] had a pIC50 above 7.30.
As for `CCc1ccc(F)c(NC(=O)N2CCN(c3ccccc3OCc3ccnc(N)n3)CC2)c1` [Example 278, 4-(2-{[(2-aminopyrimidin-4-yl)methyl]oxy}phenyl)-N-(5-ethyl-2-fluorophenyl)piperazine-1-carboxamide], the figure is above 7.30; as for `Nc1nccc(COc2nccnc2N2CCN(C(=O)Nc3cc(C(F)(F)F)ccc3F)CC2)n1` [Example 225, 4-(3-{[(2-aminopyrimidin-4-yl)methyl]oxy}pyrazin-2-yl)-N-[2-fluoro-5-(trifluoromethyl)phenyl]piperazine-1-carboxamide], above 7.30.
The figure for `CCN(CC)CC(=O)Nc1cc(COc2nsnc2N2CCN(C(=O)Nc3cc(C(F)(F)F)cc(C(F)(F)F)c3)CC2)ccn1` [Example 156, N-[3,5-bis(trifluoromethyl)phenyl]-4-{4-[({2-[(N,N-diethylglycyl)amino]pyridin-4-yl}methyl)oxy]-1,2,5-thiadiazol-3-yl}piperazine-1-carboxamide] is 6.00 to 7.30; for `CC(Oc1cccnc1N1CCN(C(=O)Nc2cc(C(F)(F)F)cc(C(F)(F)F)c2)CC1)c1ccnc(N)n1` (centres unmarked) [Example 216, 4-(3-{[1-(2-aminopyrimidin-4-yl)ethyl]oxy}pyridin-2-yl)-N-[3,5-bis(trifluoromethyl)phenyl]piperazine-1-carboxamide] it is above 7.30; for `CCc1ccc(F)c(NC(=O)N2CCN(c3nc(Cl)ccc3OCc3ccnc(N)n3)CC2)c1` [Example 246, 4-(3-{[(2-aminopyrimidin-4-yl)methyl]oxy}-6-chloropyridin-2-yl)-N-(5-ethyl-2-fluorophenyl)piperazine-1-carboxamide] it is above 7.30.
In turn, `CN(C)CCNc1cc(COc2nsnc2N2CCN(C(=O)Nc3cc(C(F)(F)F)cc(C(F)(F)F)c3)CC2)ccn1` [Example 120, N-[3,5-bis(trifluoromethyl)phenyl]-4-(4-{[(2-{[2-(dimethylamino)ethyl]amino}pyridin-4-yl)methyl]oxy}-1,2,5-thiadiazol-3-yl)piperazine-1-carboxamide] gave a pIC50 of 6.00 to 7.30.
Consider `Nc1nccc(COc2nccnc2N2CCN(C(=O)Nc3ccccc3)CC2)n1` [Example 224, 4-(3-{[(2-aminopyrimidin-4-yl)methyl]oxy}pyrazin-2-yl)-N-phenylpiperazine-1-carboxamide], for which the pIC50 was 6.00 to 7.30.
The compound `CC1CN(c2nccnc2OCc2ccncc2)CC(C)N1C(=O)Nc1cc(C(F)(F)F)cc(C(F)(F)F)c1` (centres unmarked) [Example 64, N-[3,5-bis(trifluoromethyl)phenyl]-2,6-dimethyl-4-{3-[(pyridin-4-ylmethyl)oxy]pyrazin-2-yl}piperazine-1-carboxamide] gave a pIC50 of 6.00 to 7.30.
The compound `CCc1cc(Cl)cc(NC(=O)N2CCN(c3nsnc3OCc3ccnc(N)n3)CC2)c1` [Example 221, 4-(4-{[(2-aminopyrimidin-4-yl)methyl]oxy}-1,2,5-thiadiazol-3-yl)-N-(3-chloro-5-ethylphenyl)piperazine-1-carboxamide] had a pIC50 above 7.30.
Consider `CCN1CCC(C(=O)Nc2cc(COc3nsnc3N3CCN(C(=O)Nc4cc(C(F)(F)F)cc(C(F)(F)F)c4)CC3)ccn2)CC1` [Example 146, N-[3,5-bis(trifluoromethyl)phenyl]-4-(4-{[(2-{[(1-ethylpiperidin-4-yl)carbonyl]amino}pyridin-4-yl)methyl]oxy}-1,2,5-thiadiazol-3-yl)piperazine-1-carboxamide], for which the pIC50 was above 7.30.
As for `CN1CCCC(C(=O)Nc2cc(COc3nsnc3N3CCN(C(=O)Nc4cc(C(F)(F)F)cc(C(F)(F)F)c4)CC3)ccn2)C1` (centres unmarked) [Example 143, N-[3,5-bis(trifluoromethyl)phenyl]-4-(4-{[(2-{[(1-methylpiperidin-3-yl)carbonyl]amino}pyridin-4-yl)methyl]oxy}-1,2,5-thiadiazol-3-yl)piperazine-1-carboxamide], the figure is above 7.30.
Consider `CCc1cccc(NC(=O)N2CCN(c3nsnc3OCc3ccnc(N)n3)CC2)c1` [Example 158, 4-(4-{[(2-aminopyrimidin-4-yl)methyl]oxy}-1,2,5-thiadiazol-3-yl)-N-(3-ethylphenyl)piperazine-1-carboxamide], for which the pIC50 was 6.00 to 7.30.
The figure for `CCc1cccc(NC(=O)N2CCN(c3ccccc3OCc3ccnc(N)n3)CC2)c1` [Example 256, 4-(2-{[(2-aminopyrimidin-4-yl)methyl]oxy}phenyl)-N-(3-ethylphenyl)piperazine-1-carboxamide] is above 7.30.
As for `Nc1nccc(COc2ccccc2N2CCN(C(=O)Nc3cc(C(F)(F)F)ccc3F)CC2)n1` [Example 268, 4-(2-{[(2-aminopyrimidin-4-yl)methyl]oxy}phenyl)-N-[2-fluoro-5-(trifluoromethyl)phenyl]piperazine-1-carboxamide], the figure is above 7.30; as for `O=C(Nc1nccc(COc2nsnc2N2CCN(C(=O)Nc3cc(C(F)(F)F)cc(C(F)(F)F)c3)CC2)n1)OCCN1CCCC1` [Example 162, 2-pyrrolidin-1-ylethyl {4-[({4-[4-({[3,5-bis(trifluoromethyl)phenyl]amino}carbonyl)piperazin-1-yl]-1,2,5-thiadiazol-3-yl}oxy)methyl]pyrimidin-2-yl}carbamate], 6.00 to 7.30.
For `CCc1cccc(NC(=O)N2CCN(c3ncccc3OCc3ccnc(NC(=O)OC)c3)CC2)c1` [Example 161, methyl [4-({[2-(4-{[(3-ethylphenyl)amino]carbonyl}piperazin-1-yl)pyridin-3-yl]oxy}methyl)pyridin-2-yl]carbamate], the negative logarithm of the IC50 (pIC50) is above 7.30.
Consider `CCc1cccc(NC(=O)N2CCN(c3nccnc3OCc3ccncc3)CC2C)c1` (centres unmarked) [Example 93, N-(3-ethylphenyl)-2-methyl-4-{3-[(pyridin-4-ylmethyl)oxy]pyrazin-2-yl}piperazine-1-carboxamide], for which the pIC50 is above 7.30.
With `CCc1cc(Cl)cc(NC(=O)N2CCN(c3ncccc3OCc3ccnc(NC(=O)CN4CCN(C)CC4)c3)CC2)c1` [Example 198, N-(3-chloro-5-ethylphenyl)-4-(3-{[(2-{[(4-methylpiperazin-1-yl)acetyl]amino}pyridin-4-yl)methyl]oxy}pyridin-2-yl)piperazine-1-carboxamide], the pIC50 is above 7.30.
With `CCc1cc(CC)cc(NC(=O)N2CCN(c3nccnc3OCc3ccnc(N)n3)CC2)c1` [Example 215, 4-(3-{[(2-aminopyrimidin-4-yl)methyl]oxy}pyrazin-2-yl)-N-(3,5-diethylphenyl)piperazine-1-carboxamide], the pIC50 was above 7.30.
The figure for `O=C(O)c1ccc(COc2nsnc2N2CCN(C(=O)Nc3cc(C(F)(F)F)cc(C(F)(F)F)c3)CC2)cc1` [Example 32, 4-[({4-[4-({[3,5-bis(trifluoromethyl)phenyl]amino}carbonyl)piperazin-1-yl]-1,2,5-thiadiazol-3-yl}oxy)methyl]benzoic acid] is 5.00 to 6.00.
For the compound `CCC(=O)N1CCN(c2ncccc2OCc2ccnc(N)n2)CC1` [Example 208, 4-({[2-(4-propanoylpiperazin-1-yl)pyridin-3-yl]oxy}methyl)pyrimidin-2-amine], the negative-log IC50 (pIC50) was at most 5.00.
